# Assay results published in PubChem BioAssay (NCI).
#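 Compound exposure: 48 hours, 5 concentrations, 96-well plates. GI50: concentration for 50% inhibition of growth. At the TGI there is no net growth.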
# How the values were obtained:
# Test in all cases: growth of human tumour cells (NCI), 48 h
# [1] = tested on: SK-MEL-5 melanoma
# [2] = tested on: UO-31 renal
# [3] = tested on: K-562 leukemia
# [4] = tested on: NCI-H23 lung
# [5] = tested on: SF-295 CNS
# [6] = tested on: HL-60(TB) leukemia
# [7] = tested on: SW-620 colon
# [8] = tested on: TK-10 renal
# [9] = tested on: RXF 393 renal
# [10] = tested on: M14 melanoma
# [11] = tested on: SF-268 CNS
# [12] = tested on: OVCAR-4 ovarian
# [13] = tested on: HOP-92 NSCLC
# [14] = tested on: MDA-MB-468 breast
# [15] = tested on: MOLT-4 leukemia
# [16] = tested on: HT29 colon
# [17] = tested on: HCT-15 colon
# [18] = tested on: LOX IMVI melanoma
# [19] = tested on: COLO 205 colon
# [20] = tested on: PC-3 prostate
# [21] = tested on: OVCAR-3 ovarian
# [22] = tested on: MALME-3M melanoma
# [23] = tested on: SR leukemia
# [24] = tested on: HCC-2998 colon
# [25] = tested on: OVCAR-5 ovarian
# [26] = tested on: A549 NSCLC
# [27] = tested on: UACC-62 melanoma
# [28] = tested on: SNB-75 CNS
# [29] = tested on: BT-549 breast
smiles,measurement,setting,value
CCCCOc1ccc(NC(=O)c2sc3nc(C)ccc3c2N)cc1,GI50,[1],2 µM
same,TGI,[1],10.2 µM
same,GI50,[2],2.32 µM
same,TGI,[2],11.2 µM
same,GI50,[3],2.85 µM
same,TGI,[3],> 100 µM
same,GI50,[4],1.5 µM
same,TGI,[4],3.56 µM
same,GI50,[5],2.59 µM
same,TGI,[5],10.3 µM
same,GI50,[6],49.9 µM
same,TGI,[6],> 100 µM
same,GI50,[7],11.4 µM
same,TGI,[7],31 µM
same,GI50,[8],5.57 µM
same,TGI,[8],20.4 µM
same,GI50,[9],2.98 µM
same,TGI,[9],12.9 µM
same,GI50,[10],12.6 µM
same,TGI,[10],35.2 µM
same,GI50,[11],6.39 µM
same,TGI,[11],29.9 µM
same,GI50,[12],1.49 µM
same,TGI,[12],5.97 µM
same,GI50,[13],5.71 µM
same,TGI,[13],22.8 µM
same,GI50,[14],1.23 µM
same,TGI,[14],3.29 µM
same,GI50,[15],7.46 µM
same,TGI,[15],> 100 µM
same,GI50,[16],6.83 µM
same,TGI,[16],26.3 µM
same,GI50,[17],3.87 µM
same,TGI,[17],17.7 µM
same,GI50,[18],2.36 µM
same,TGI,[18],6.68 µM
same,GI50,[19],19.3 µM
same,TGI,[19],54.4 µM
same,GI50,[20],7.74 µM
same,TGI,[20],> 100 µM
same,GI50,[21],2.8 µM
same,TGI,[21],8.65 µM
same,GI50,[22],5.31 µM
same,TGI,[22],19.4 µM
same,GI50,[23],3.3 µM
same,TGI,[23],> 100 µM
same,GI50,[24],4.73 µM
same,TGI,[24],20.6 µM
same,GI50,[25],4.61 µM
same,TGI,[25],28.8 µM
same,GI50,[26],3.22 µM
same,TGI,[26],9.73 µM
same,GI50,[27],6.89 µM
same,TGI,[27],22.9 µM
same,GI50,[28],2.39 µM
same,TGI,[28],9.02 µM
same,GI50,[29],2.56 µM
same,TGI,[29],10.2 µM
